The text below walks through data of paper PMC12396409, “Screening and hit evaluation of a microbial metabolite library against the pathogenic Plasmodium falciparum and Toxoplasma gondii parasites” (International Journal for Parasitology: Drugs and Drug …, 2025).

Where two headings read alike, the source gives them in different places.

Experiment [1] relates to P. falciparum 3D7 parasites. Put plainly: P. falciparum growth inhibition assay, 2-cycle (120 h treatment), delayed-death screen and dose-response. It is filed as cell-based, Plasmodium falciparum. Particulars: P. falciparum; for Pf_120h_%Growth_Rep1 / Pf_120h_%Growth_Rep2 / activity at 2 µg/mL / 2) Growth (%) at 120 h: 120 h; for Pf_120h_%Growth_Rep1 / Pf_120h_%Growth_Rep2 / activity at 2 µg/mL: screen at 2 μg/mL; for activity at 2 µg/mL: Plasmodium falciparum.

Experiment [2] relates to T. gondii RH strain (RH-Tub-eYFP) tachyzoites. Put plainly: microbe, parasite or virus in culture. It is filed as cell-based, Toxoplasma gondii. Particulars: 72 h; for percent parasite growth at 2 µg/mL: Toxoplasma gondii.
Experiment [3] has as its system P. falciparum 3D7 parasites. Put plainly: P. falciparum growth inhibition assay, 1-cycle (72 h treatment), SYBR DNA staining (library screen at 2 μg/mL and dose-response). It is filed as cell-based, Plasmodium falciparum. To be noted: P. falciparum, 72 h; for Pf_72h_%Growth_Rep1 / Pf_72h_%Growth_Rep2 / activity at 2 µg/mL: screen at 2 μg/mL; for activity at 2 µg/mL: Plasmodium falciparum.

[4] abbreviates: T. gondii, screen at 2 μg/mL, replicate 1.
The mark [5] stands for this setting: T. gondii, screen at 2 μg/mL, replicate 2.
The mark [6] stands for this setting: 3D7, replicate 1, read-out: Pf_120h_%Growth_Rep1.
Where [7] appears, read: 3D7, replicate 2, read-out: Pf_120h_%Growth_Rep2.
[8] abbreviates: T. gondii, screen at 2 μg/mL, replicate 1, read-out: Tg_72h_%Growth_Rep1.
Setting [9] is: T. gondii, screen at 2 μg/mL, replicate 2, read-out: Tg_72h_%Growth_Rep2.
Where [10] appears, read: 3D7, replicate 1, read-out: Pf_72h_%Growth_Rep1.
Where [11] appears, read: 3D7, replicate 2, read-out: Pf_72h_%Growth_Rep2.
Where [12] appears, read: 3D7, 120 h, replicate 1, read-out: Pf_120h_%Growth_Rep1.
Where [13] appears, read: 3D7, 120 h, replicate 2, read-out: Pf_120h_%Growth_Rep2.
Where [14] appears, read: 3D7, 72 h, replicate 1, read-out: Pf_72h_%Growth_Rep1.
Setting [15] is: 3D7, 72 h, replicate 2, read-out: Pf_72h_%Growth_Rep2.
The mark [16] stands for this setting: T. gondii, 2 μg/mL, values are growth (% of control).

With `N[C@H](CO)[C@H](O)c1ccc([N+](=O)[O-])cc1` [Chloramphenicol base], the Pf_120h_%Growth_Rep1 in experiment [1] (replicate 1) is given as 102.72%. In addition, the Pf_120h_%Growth_Rep2 in experiment [1] (replicate 2) is 92.34%. The molecule further had a Tg_72h_%Growth_Rep1 in experiment [2] (setting [4]) of 134.60%. In experiment [2] (setting [5]), this molecule had a Tg_72h_%Growth_Rep2 of 99.67%. Also, in experiment [3] (replicate 1), the Pf_72h_%Growth_Rep1 came out at 86.96%. This molecule also gave a Pf_72h_%Growth_Rep2 in experiment [3] (replicate 2) of 86.58%.

`CCCCCCCCCCCCCCCC(=O)OC[C@@H](NC(=O)C(Cl)Cl)[C@H](O)c1ccc([N+](=O)[O-])cc1` [Chloramphenicol palmitate]: the activity at 2 µg/mL in experiment [1] (setting [6]) was found to be 101%; in experiment [1] (setting [7]), 90.8%; in experiment [3] (setting [10]), 83.7%; in experiment [3] (setting [11]) it was 81.8%. For the same molecule, the percent parasite growth at 2 µg/mL in experiment [2] (setting [8]) was determined as 153%; in experiment [2] (setting [9]) it was 98.2%.

Turning to `O=C(O)CCC(=O)OC[C@@H](NC(=O)C(Cl)Cl)[C@H](O)c1ccc([N+](=O)[O-])cc1` [Chloramphenicol succinate], the activity at 2 µg/mL in experiment [1] (setting [6]) is 150%; in experiment [1] (setting [7]), 95.2%; in experiment [3] (setting [10]), 111%; in experiment [3] (setting [11]) it was 86.6%. Further, the percent parasite growth at 2 µg/mL in experiment [2] (read-out: Tg_72h_%Growth_Rep1) is 79.4%; in experiment [2] (read-out: Tg_72h_%Growth_Rep2), 97.4%.

Consider `O=C(N[C@H](CO)[C@H](O)c1ccc([N+](=O)[O-])cc1)C(Cl)Cl` [Chloramphenicol], for which the activity at 2 µg/mL was 117% in experiment [1] (setting [12]), 64.9% in experiment [1] (setting [13]), 85.8% in experiment [3] (setting [14]) and 84.9% in experiment [3] (setting [15]). The percent parasite growth at 2 µg/mL in experiment [2] (setting [8]) is 86.7%; in experiment [2] (setting [9]), 85.3%.

In experiment [1] (replicate 1), `COc1ccc(Cl)c(C)c1C(=O)O[C@@H]1C[C@H](O[C@H]2[C@H](O)C[C@H](O[C@H]3CCC[C@@H]4[C@@H]3C=C[C@H]3CCCC/C=C/[C@@H]5C=C(C(=O)O)[C@H](C)C[C@]56OC(=O)C(=C6O)OC(=O)[C@@]43C)O[C@@H]2C)O[C@H](C)[C@H]1O` [Chlorothricin] showed a Pf_120h_%Growth_Rep1 of 151.59%. The Pf_120h_%Growth_Rep2 in experiment [1] (replicate 2) turned out to be 96.98%. The Tg_72h_%Growth_Rep1 in experiment [2] (setting [4]) turned out to be 75.08%. Besides, the Tg_72h_%Growth_Rep2 in experiment [2] (setting [5]) came to 94.25%. For the same molecule, in experiment [3] (replicate 1), the Pf_72h_%Growth_Rep1 is 106.01%. In experiment [3] (replicate 2), this molecule registered a Pf_72h_%Growth_Rep2 of 86.61%.

Turning to `CN(C)[C@@H]1C(O)=C(C(N)=O)C(=O)[C@@]2(O)C(O)=C3C(=O)c4c(O)ccc(Cl)c4[C@@](C)(O)[C@H]3C[C@@H]12` [Chlortetracycline], the activity at 2 µg/mL in experiment [1] (setting [12]) was 149%; in experiment [1] (setting [13]), 97.7%; in experiment [3] (setting [14]) it was 97.7%; in experiment [3] (setting [15]), 90.6%. For the same molecule, the percent parasite growth at 2 µg/mL was found to be 102% in experiment [2] (setting [8]) and 83.5% in experiment [2] (setting [9]).

With `CO[C@H]1[C@H](O)C[C@@H](O[C@@H]2C[C@H](Oc3cc4cc5c(c(O)c4c(O)c3C)C(=O)[C@@H](O[C@H]3C[C@H](O[C@H]4C[C@H](O[C@H]6C[C@@](C)(O)[C@@H](OC(=O)C(C)C)[C@H](C)O6)[C@H](O)[C@@H](C)O4)[C@H](O)[C@@H](C)O3)[C@H]([C@H](OC)C(=O)[C@@H](O)[C@@H](C)O)C5)O[C@H](C)[C@H]2OC(C)=O)O[C@@H]1C` [Chromomycin A2], the activity at 2 µg/mL in experiment [1] (setting [12]) was 3.01%; in experiment [1] (setting [13]), 9.04%; in experiment [3] (setting [14]), 6.05%; in experiment [3] (setting [15]), 1.3%. For the same molecule, the percent parasite growth at 2 µg/mL came out at 2.51% in experiment [2] (setting [8]) and 1.82% in experiment [2] (setting [9]).

On to `CO[C@@H]1[C@H](O)C[C@@H](O[C@@H]2C[C@H](Oc3cc4cc5c(c(O)c4c(O)c3C)C(=O)[C@@H](O[C@H]3C[C@@H](O[C@H]4C[C@@H](O[C@H]6C[C@](C)(O)[C@@H](OC(C)=O)[C@H](C)O6)[C@H](O)[C@@H](C)O4)[C@H](O)[C@@H](C)O3)[C@H]([C@H](OC)C(=O)[C@@H](O)[C@@H](C)O)C5)O[C@H](C)[C@@H]2OC(C)=O)O[C@@H]1C` [Chromomycin A3], for which the activity at 2 µg/mL in experiment [1] (setting [12]) is 2.76%; in experiment [1] (setting [13]), -4.9%; in experiment [3] (setting [14]), -1.98%; in experiment [3] (setting [15]), 0.17%. Further, the percent parasite growth at 2 µg/mL stood at 1.51% in experiment [2] (setting [8]) and 1.99% in experiment [2] (setting [9]).

On to `C=Cc1cc(OC)c2c(c1)c(=O)oc1c2cc(OC)c2c(O)ccc([C@H]3O[C@@H](C)[C@@H](O)[C@](C)(O)[C@@H]3O)c21` [Chrysomycin A], for which the “2) Growth (%) at 120 h” value in experiment [1] (2 μg/mL) was -1.07%. In experiment [1] (replicate 1), this molecule gave a Pf_120h_%Growth_Rep1 of 6.31%. In addition, in experiment [1] (replicate 2), the Pf_120h_%Growth_Rep2 was -8.44%. This molecule registered a Tg_72h_%Growth_Rep1 in experiment [2] (setting [4]) of 53.94%. Moreover, in experiment [2] (setting [5]), the Tg_72h_%Growth_Rep2 is on record as 65.86%. Moreover, the “1) Growth (%) at 72 h” value in experiment [3] (2 μg/mL) is 36.94%. The Mean in experiment [3] (2 μg/mL, mean of both replicates, growth (% of control)) stood at 36.94. Besides, in experiment [3] (replicate 1), the Pf_72h_%Growth_Rep1 is 16.21%. Also, in experiment [3] (replicate 2), the Pf_72h_%Growth_Rep2 turned out to be 57.66%.

Take `COc1cc2c(oc(=O)c3cc(C)cc(OC)c32)c2c([C@@H]3O[C@H](C)[C@H](O)[C@@](C)(O)[C@H]3O)ccc(O)c12` [Chrysomycin B]: the activity at 2 µg/mL in experiment [1] (setting [12]) came to 73%; in experiment [1] (setting [13]), 73.7%; in experiment [3] (setting [14]), 67.5%; in experiment [3] (setting [15]) it was 64.1%. Besides, the Mean in experiment [2] (T. gondii, 2 μg/mL, mean of both replicates, growth (% of control)) was found to be 21.06. Moreover, the “Replicate 1” value in experiment [2] (setting [16]) stood at 25.01. Also, the “Replicate 2” value in experiment [2] (setting [16]) is on record as 17.10. Further, the percent parasite growth at 2 µg/mL was 25% in experiment [2] (setting [8]) and 17.1% in experiment [2] (setting [9]).

`NC(=O)C=Cc1ccccc1` [Cinnamamide]: the activity at 2 µg/mL in experiment [1] (setting [6]) is 152%; in experiment [1] (setting [7]), 94.1%; in experiment [3] (setting [10]) it was 95%; in experiment [3] (setting [11]), 81.9%. The percent parasite growth at 2 µg/mL in experiment [2] (read-out: Tg_72h_%Growth_Rep1) came out at 85.6%; in experiment [2] (read-out: Tg_72h_%Growth_Rep2), 87.3%.

For `O=C(O)/C=C/c1ccccc1` [Cinnamic acid], the activity at 2 µg/mL in experiment [1] (setting [6]) came to 147%; in experiment [1] (setting [7]) it was 102%; in experiment [3] (setting [10]), 90.3%; in experiment [3] (setting [11]), 87.8%. Besides, the percent parasite growth at 2 µg/mL in experiment [2] (setting [8]) amounted to 86.5%; in experiment [2] (setting [9]), 96.7%.

On to `O=C1N[C@@H](C[C@@]2(O)c3ccccc3N3C(=O)C[C@@H](c4ccccc4)N[C@H]32)C(=O)N[C@H]1Cc1ccccc1` [Citreoindole], for which the “2) Growth (%) at 120 h” value in experiment [1] (2 μg/mL) came out at 9.52%. The molecule further showed a Pf_120h_%Growth_Rep1 in experiment [1] (replicate 1) of 10.68%. In experiment [1] (replicate 2), the Pf_120h_%Growth_Rep2 worked out at 8.36%. In experiment [1] (growth at 72 h / growth at 120 h, 2 μg/mL), the “3) Fold change (72 h/120 h)” value is given as 2.9. The Tg_72h_%Growth_Rep1 in experiment [2] (setting [4]) is listed as 97.80%. Further, the Tg_72h_%Growth_Rep2 in experiment [2] (setting [5]) was 86.03%. Also, the “1) Growth (%) at 72 h” value in experiment [3] (2 μg/mL) was 27.30%. In experiment [3] (replicate 1), this molecule yielded a Pf_72h_%Growth_Rep1 of 25.03%. This molecule gave a Pf_72h_%Growth_Rep2 in experiment [3] (replicate 2) of 29.57%.

Regarding `COc1cc(=O)oc(/C=C/C=C/C=C/C(C)=C/[C@@]2(C)O[C@H](C)[C@](C)(O)[C@H]2O)c1C` [Citreoviridin], the Pf_120h_%Growth_Rep1 in experiment [1] (replicate 1) worked out at 141.81%. In addition, the Pf_120h_%Growth_Rep2 in experiment [1] (replicate 2) turned out to be 93.96%. Moreover, in experiment [2] (setting [4]), the Tg_72h_%Growth_Rep1 was 86.37%. Also, the Tg_72h_%Growth_Rep2 in experiment [2] (setting [5]) amounted to 89.97%. The Pf_72h_%Growth_Rep1 in experiment [3] (replicate 1) came to 92.20%. Moreover, the Pf_72h_%Growth_Rep2 in experiment [3] (replicate 2) is reported as 86.47%.

For the molecule `CC1=C2C(=CO[C@H](C)[C@H]2C)C(O)=C(C(=O)O)C1=O` [Citrinin], the activity at 2 µg/mL is 138% in experiment [1] (setting [12]), 82.5% in experiment [1] (setting [13]), 89.1% in experiment [3] (setting [14]) and 84% in experiment [3] (setting [15]). Further, the percent parasite growth at 2 µg/mL in experiment [2] (setting [8]) was determined as 87.8%; in experiment [2] (setting [9]), 82%.
